According to patent US11932608B1, “4-((2-(2-(2-(4-hydroxyphenyl)-4,5-diphenyl-1H-imidazol-1-yl)acetyl)hydrazono)methyl)benzoic acid as an anticancer compound” (KING FAISAL UNIVERSITY, priority 2023, dated 2024):

Columns and labels:
[1] = test system: SN12C; experiment: Percentage growth inhibition of in vitro subpanel tumor cell lines; assay type: cell-based; settings: Homo sapiens, 0.01 mM, Renal Cancer, read-out: Percentage growth inhibition (GI %)
Protocol: (§1) The anticancer activity of 4-((2-(2-(2-(4-hydroxyphenyl)-4,5-diphenyl-1H-imidazol-1-yl)acetyl)hydrazono)methyl)benzoic acid was assessed against leukemia, non-small cell lung cancer, colon cancer, central nervous system (CNS) cancer, melanoma, ovarian cancer, renal cancer, prostate cancer, and breast cancer.
(§2) Percentage growth inhibition (GI %) of in vitro subpanel tumor cell lines at 0.01 mM concentration for compound 4-((2-(2-(2-(4-hydroxyphenyl)-4,5-diphenyl-1H-imidazol-1-yl)acetyl)hydrazono)methyl)benzoic acid (Labeled as AE21 in the table) can be seen in Table 1 below.

[2] = test system: MOLT-4; experiment: as above; assay type: cell-based; settings: Homo sapiens; 0.01 mM; MOLT-4, Leukemia; read-out: Percentage growth inhibition (GI %)
Protocol: as §1, §2

[3] = test system: CCRF-CEM; experiment: as above; assay type: cell-based; settings: Homo sapiens, 0.01 mM, Leukemia, read-out: Percentage growth inhibition (GI %)
Protocol: as §1, §2

[4] = test system: SK-MEL-5; experiment: as above; assay type: cell-based; settings: Homo sapiens; 0.01 mM; SK-MEL-5, Melanoma; read-out: Percentage growth inhibition (GI %)
Protocol: as §1, §2

[5] = test system: HCT-116; experiment: as above; assay type: cell-based; settings: Homo sapiens; 0.01 mM; HCT-116, Colon Cancer; read-out: Percentage growth inhibition (GI %)
Protocol: as §1, §2

[6] = test system: NCI-H226; experiment: as above; assay type: cell-based; settings: Homo sapiens; 0.01 mM; NCI-H226, Non-Small Cell Lung Cancer; read-out: Percentage growth inhibition (GI %)
Protocol: as §1, §2

[7] = test system: DU-145; experiment: as above; assay type: cell-based; settings: Homo sapiens; 0.01 mM; DU-145, Prostate Cancer; read-out: Percentage growth inhibition (GI %)
Protocol: as §1, §2

[8] = test system: SF-268; experiment: as above; assay type: cell-based; settings: Homo sapiens; 0.01 mM; SF-268, CNS Cancer; read-out: Percentage growth inhibition (GI %)
Protocol: as §1, §2

[9] = test system: ACHN; experiment: as above; assay type: cell-based; settings: Homo sapiens, 0.01 mM, Renal Cancer, read-out: Percentage growth inhibition (GI %)
Protocol: as §1, §2

[10] = test system: BT-549; experiment: as above; assay type: cell-based; settings: Homo sapiens; 0.01 mM; BT-549, Breast Cancer; read-out: Percentage growth inhibition (GI %)
Protocol: as §1, §2

[11] = test system: NCI-H460; experiment: as above; assay type: cell-based; settings: Homo sapiens; 0.01 mM; NCI-H460, Non-Small Cell Lung Cancer; read-out: Percentage growth inhibition (GI %)
Protocol: as §1, §2

[12] = test system: SF-295; experiment: as above; assay type: cell-based; settings: Homo sapiens; 0.01 mM; SF-295, CNS Cancer; read-out: Percentage growth inhibition (GI %)
Protocol: as §1, §2

[13] = test system: HL-60(TB); experiment: as above; assay type: cell-based; settings: Homo sapiens, 0.01 mM, Leukemia, read-out: Percentage growth inhibition (GI %)
Protocol: as §1, §2

[14] = test system: KM12; experiment: as above; assay type: cell-based; settings: Homo sapiens; 0.01 mM; KM12, Colon Cancer; read-out: Percentage growth inhibition (GI %)
Protocol: as §1, §2

[15] = test system: A549/ATCC; experiment: as above; assay type: cell-based; settings: Homo sapiens, 0.01 mM, Non-Small Cell Lung Cancer, read-out: Percentage growth inhibition (GI %)
Protocol: as §1, §2

[16] = test system: SNB-75; experiment: as above; assay type: cell-based; settings: Homo sapiens; 0.01 mM; SNB-75, CNS Cancer; read-out: Percentage growth inhibition (GI %)
Protocol: as §1, §2

[17] = test system: LOX IMVI; experiment: as above; assay type: cell-based; settings: Homo sapiens, 0.01 mM, Melanoma, read-out: Percentage growth inhibition (GI %)
Protocol: as §1, §2

[18] = test system: K-562; experiment: as above; assay type: cell-based; settings: Homo sapiens, K562; 0.01 mM; K-562, Leukemia; read-out: Percentage growth inhibition (GI %)
Protocol: as §1, §2

[19] = test system: SW-620; experiment: as above; assay type: cell-based; settings: Homo sapiens; 0.01 mM; SW-620, Colon Cancer; read-out: Percentage growth inhibition (GI %)
Protocol: as §1, §2

[20] = test system: EKVX; experiment: as above; assay type: cell-based; settings: Homo sapiens, 0.01 mM, Non-Small Cell Lung Cancer, read-out: Percentage growth inhibition (GI %)
Protocol: as §1, §2

[21] = test system: IGROV1; experiment: as above; assay type: cell-based; settings: Homo sapiens, IGROV-1; 0.01 mM; IGROV1, Ovarian Cancer; read-out: Percentage growth inhibition (GI %)
Protocol: as §1, §2

[22] = test system: RPMI-8226; experiment: as above; assay type: cell-based; settings: Homo sapiens; 0.01 mM; RPMI-8226, Leukemia; read-out: Percentage growth inhibition (GI %)
Protocol: as §1, §2

[23] = test system: NCI/ADR-RES; experiment: as above; assay type: cell-based; settings: Homo sapiens, 0.01 mM, Ovarian Cancer, read-out: Percentage growth inhibition (GI %)
Protocol: as §1, §2

[24] = test system: MCF7; experiment: as above; assay type: cell-based; settings: Homo sapiens; 0.01 mM; MCF7, Breast Cancer; read-out: Percentage growth inhibition (GI %)
Protocol: as §1, §2

[25] = test system: MDA-MB-435; experiment: as above; assay type: cell-based; settings: Homo sapiens; 0.01 mM; MDA-MB-435, Melanoma; read-out: Percentage growth inhibition (GI %)
Protocol: as §1, §2

[26] = test system: HT29; experiment: as above; assay type: cell-based; settings: Homo sapiens, HT-29; 0.01 mM; HT29, Colon Cancer; read-out: Percentage growth inhibition (GI %)
Protocol: as §1, §2

[27] = test system: HS 578T; experiment: as above; assay type: cell-based; settings: Homo sapiens, 0.01 mM, Breast Cancer, read-out: Percentage growth inhibition (GI %)
Protocol: as §1, §2

[28] = test system: NCI-H522; experiment: as above; assay type: cell-based; settings: Homo sapiens; 0.01 mM; NCI-H522, Non-Small Cell Lung Cancer; read-out: Percentage growth inhibition (GI %)
Protocol: as §1, §2

[29] = test system: T-47D; experiment: as above; assay type: cell-based; settings: Homo sapiens, T47D, 0.01 mM, Breast Cancer, read-out: Percentage growth inhibition (GI %)
Protocol: as §1, §2

[30] = test system: HCT-15; experiment: as above; assay type: cell-based; settings: Homo sapiens; 0.01 mM; HCT-15, Colon Cancer; read-out: Percentage growth inhibition (GI %)
Protocol: as §1, §2

[31] = test system: OVCAR-5; experiment: as above; assay type: cell-based; settings: Homo sapiens; 0.01 mM; OVCAR-5, Ovarian Cancer; read-out: Percentage growth inhibition (GI %)
Protocol: as §1, §2

[32] = test system: M14; experiment: as above; assay type: cell-based; settings: Homo sapiens; 0.01 mM; M14, Melanoma; read-out: Percentage growth inhibition (GI %)
Protocol: as §1, §2

[33] = test system: MDA-MB-231/ATCC; experiment: as above; assay type: cell-based; settings: Homo sapiens, 0.01 mM, Breast Cancer, read-out: Percentage growth inhibition (GI %)
Protocol: as §1, §2

[34] = test system: SF-539; experiment: as above; assay type: cell-based; settings: Homo sapiens; 0.01 mM; SF-539, CNS Cancer; read-out: Percentage growth inhibition (GI %)
Protocol: as §1, §2

[35] = test system: UO-31; experiment: as above; assay type: cell-based; settings: Homo sapiens; 0.01 mM; UO-31, Renal Cancer; read-out: Percentage growth inhibition (GI %)
Protocol: as §1, §2

[36] = test system: OVCAR-4; experiment: as above; assay type: cell-based; settings: Homo sapiens; 0.01 mM; OVCAR-4, Ovarian Cancer; read-out: Percentage growth inhibition (GI %)
Protocol: as §1, §2

[37] = test system: UACC-257; experiment: as above; assay type: cell-based; settings: Homo sapiens; 0.01 mM; UACC-257, Melanoma; read-out: Percentage growth inhibition (GI %)
Protocol: as §1, §2

[38] = test system: CAKI-1; experiment: as above; assay type: cell-based; settings: Homo sapiens; 0.01 mM; CAKI-1, Renal Cancer; read-out: Percentage growth inhibition (GI %)
Protocol: as §1, §2

[39] = test system: PC-3; experiment: as above; assay type: cell-based; settings: Homo sapiens; 0.01 mM; PC-3, Prostate Cancer; read-out: Percentage growth inhibition (GI %)
Protocol: as §1, §2

[40] = test system: U251; experiment: as above; assay type: cell-based; settings: Homo sapiens, U-251; 0.01 mM; U251, CNS Cancer; read-out: Percentage growth inhibition (GI %)
Protocol: as §1, §2

[41] = test system: NCI-H23; experiment: as above; assay type: cell-based; settings: Homo sapiens; 0.01 mM; NCI-H23, Non-Small Cell Lung Cancer; read-out: Percentage growth inhibition (GI %)
Protocol: as §1, §2

[42] = test system: OVCAR-8; experiment: as above; assay type: cell-based; settings: Homo sapiens; 0.01 mM; OVCAR-8, Ovarian Cancer; read-out: Percentage growth inhibition (GI %)
Protocol: as §1, §2

[43] = test system: HCC-2998; experiment: as above; assay type: cell-based; settings: Homo sapiens; 0.01 mM; HCC-2998, Colon Cancer; read-out: Percentage growth inhibition (GI %)
Protocol: as §1, §2

[44] = test system: HOP-62; experiment: as above; assay type: cell-based; settings: Homo sapiens; 0.01 mM; HOP-62, Non-Small Cell Lung Cancer; read-out: Percentage growth inhibition (GI %)
Protocol: as §1, §2

## O=C(Cn1c(-c2ccc(O)cc2)nc(-c2ccccc2)c1-c1ccccc1)N/N=C/c1ccc(C(=O)O)cc1 [AE21, 4-((2-(2-(2-(4-hydroxyphenyl)-4,5-diphenyl-1H-imidazol-1-yl)acetyl)hydrazono)methyl)benzoic acid]
[1]
  inhibition at 10 µM: 47.8%
[2]
  inhibition at 10 µM: 70.1%
[3]
  inhibition at 10 µM: 78.4%
[4]
  inhibition at 10 µM: 8.04%
[5]
  inhibition at 10 µM: 50.7%
[6]
  inhibition at 10 µM: 11.4%
[7]
  inhibition at 10 µM: 43%
[8]
  inhibition at 10 µM: 11.7%
[9]
  inhibition at 10 µM: 57.2%
[10]
  inhibition at 10 µM: 11.9%
[11]
  inhibition at 10 µM: 82.4%
[12]
  inhibition at 10 µM: 29.4%
[13]
  inhibition at 10 µM: 53.6%
[14]
  inhibition at 10 µM: 16.2%
[15]
  inhibition at 10 µM: 64.9%
[16]
  inhibition at 10 µM: 13.8%
[17]
  inhibition at 10 µM: 33.4%
[18]
  inhibition at 10 µM: 44.7%
[19]
  inhibition at 10 µM: 67.6%
[20]
  inhibition at 10 µM: 32.1%
[21]
  inhibition at 10 µM: 4.51%
[22]
  inhibition at 10 µM: 21.4%
[23]
  inhibition at 10 µM: 2.67%
[24]
  inhibition at 10 µM: 81.1%
[25]
  inhibition at 10 µM: 16.6%
[26]
  inhibition at 10 µM: 55.4%
[27]
  inhibition at 10 µM: 22.5%
[28]
  inhibition at 10 µM: 35.3%
[29]
  inhibition at 10 µM: 22.7%
[30]
  inhibition at 10 µM: 51.7%
[31]
  inhibition at 10 µM: 11.7%
[32]
  inhibition at 10 µM: 16.5%
[33]
  inhibition at 10 µM: 25.6%
[34]
  inhibition at 10 µM: 3.59%
[35]
  inhibition at 10 µM: 12.8%
[36]
  inhibition at 10 µM: 15%
[37]
  inhibition at 10 µM: 2.54%
[38]
  inhibition at 10 µM: 8.34%
[39]
  inhibition at 10 µM: 43.2%
[40]
  inhibition at 10 µM: 48.5%
[41]
  inhibition at 10 µM: 4.14%
[42]
  inhibition at 10 µM: 49%
[43]
  inhibition at 10 µM: 6.33%
[44]
  inhibition at 10 µM: 7.6%
other
  melting point: 220 to 222 °C
